# Experimental data published in US10676461B2, “Heterocyclic compound” (TAKEDA PHARMACEUTICAL COMPANY LIMITED, priority 2016, dated 2020).
# Test system: sphingomyelin in the cerebral cortex
# Test: Efficacy evaluation test using sphingomyelin accumulation model mouse (Niemann-Pick disease type A and type B model)
# Assay type: in vivo, mouse (C57BL/6J Jcl)
# Settings: for Amount of sphingomyelin per wet weight of cerebral cortex: twice daily, 2 wk, imipramine hydrochloride 40 mg/kg i.p. once daily, 4 wk, male mouse, Mean ± S.D., N = 7-8
# Source text: Test Example 4 Efficacy Evaluation Test Using Sphingomyelin Accumulation Model Mouse as Niemann-Pick Disease Type A and Type B Model
# A phase 1b clinical trial on Niemann-Pick disease type B which develops by abnormality in acid sphingomyelinase has reported that the administration of recombinant acid sphingomyelinase (olipudase alfa) decreased sphingomyelin accumulated in a peripheral organ such as the liver, and this led to the amelioration of the pathological condition (Am J Surg Pathol. 2016; 40: 1232).
# Also, the intraperitoneal administration of an acid sphingomyelinase inhibitor, imipramine hydrochloride, to a mouse increases its enzyme substrate, sphingomyelin, not only in a peripheral organ such as the liver but in the central nervous system such as the cerebrum, and the mouse obtained by such administration is recognized as an animal model that can induce sphingomyelin accumulation, as in human Niemann-Pick disease type A and type B, in each tissue (Gen Physiol Biophys 2016; 35: 195).
# Accordingly, the compound of the present invention was evaluated as a SPT inhibitor for its sphingomyelin-lowering effect on Niemann-Pick disease type B, and Niemann-Pick disease type A, which also accumulates sphingomyelin in the central nervous system such as the cerebral cortex, by the following method. Imipramine hydrochloride (Wako Pure Chemical Industries, Ltd.) was dissolved at a concentration of 2 mg/mL in saline and intraperitoneally administered at a dose of 40 mg/kg to each 6-week-old male C57BL/6J Jcl mouse (CLEA Japan, Inc.) for 2 weeks once daily. […] In this operation, the intraperitoneal administration of imipramine hydrochloride was also carried out once daily concurrently therewith. After the completion of the administration of the SPT inhibitor, the cerebrum was excised from the mouse cranium and separated into the cortex and the medulla. The cortical portion was rapidly frozen in liquid nitrogen and then disrupted using ShakeMaster Auto (Bio-Medical Science Co., Ltd.) under freezing. 2-Propanol (containing 0.002% of BHT (dibutylhydroxytoluene as a fat and oil antioxidant) was added thereto in an amount of 9 mL/g of wet weight, and lipids in the cerebral cortex were extracted by suspension using ShakeMaster Auto again. The concentration of sphingomyelin contained in the 2-propanol was measured using a sphingomyelin assay kit (Abcam, Inc., ab138877) based on the fluorescence quantification method. EnVision 2102 Multilabel Reader (PerkinElmer Inc.) was used in fluorescence measurement.
# From this, it was able to be confirmed that a model mimicking Niemann-Pick disease type A and type B which accumulate sphingomyelin in the cerebral cortex was established by the intraperitoneal administration of imipramine hydrochloride for 4 weeks.
smiles,measurement,setting,value
"Cn1nc(C(=O)N[C@@H]2CCN(C(=O)c3cc(Cl)c4nccnc4c3)C[C@@H]2c2ccc(F)cc2)cc1C(F)(F)F [Example 1, N-((3S,4R)-1-((8-Chloroquinoxalin-6-yl)carbonyl)-3-(4-fluorophenyl)piperidin-4-yl)-1-methyl-5-(trifluoromethyl)-1H-pyrazole-3-carboxamide]",Amount of sphingomyelin per wet weight of cerebral cortex,group 3: 0.3 mg/kg oral,3.282 ± 0.260 µg/g
same,Amount of sphingomyelin per wet weight of cerebral cortex,group 4: 1.0 mg/kg oral,2.972 ± 0.635 µg/g
same,Amount of sphingomyelin per wet weight of cerebral cortex,group 5: 3.0 mg/kg oral,2.952 ± 0.219 µg/g
same,effect of suppressing sphingomyelin accumulation in the cerebral cortex,"oral, 2 weeks twice daily, single dose 0.3, 1.0 and 3.0 mg/kg, imipramine model mouse, p<0.025, one-tailed Williams' test",dose-dependent significant effect of suppressing sphingomyelin accumulation in the cerebral cortex
